{"source": "patent US20210100909A1", "about": "“Polymeric Methylprednisolone Conjugates and Uses Thereof” (United States Government As Represented By The Department …, priority 2019, published 2021)", "key": {"[1]": {"assay": "Fasting blood glucose level", "assay_type": "in vivo, rat", "settings": "2 days post injury", "text": "Rats were fasted overnight in clean cages with free access to water in new clean bottles. The next morning prior to sacrifice, fasted blood glucose measurement was taken by applying tail blood to a Contour Blood Glucose Monitoring System (Bayer)."}, "[2]": {"system": "TRAP, calcitonin receptor (CTR) and Integrin β3", "assay": "Osteoclastic marker mRNA in bone (TRAP, CTR, Integrin β3)", "assay_type": "in vivo, rat", "settings": "whole bone RNA", "procedure": "(§1) Total bone RNA was extracted as previously described with some modifications. Briefly, long bones were dissected free of soft tissues, and bone marrow were flushed away with PBS using a 27 G ½ needle-syringe. The bone samples (˜1 g) were longitudinally cut into small piece and then digested 3 times with 2 mg/ml collagenase type I (Gibco, >150 Units; 20 ml), one time with 5 mM EDTA (Sigma-Aldrich, 10 ml)), and one more with the collagenase and EDTA, each for 25 min on a Shaker with rotation at 150 rpm at 370 C. Following the digestions, the bone samples were crushed using a mortar and pestle in liquid nitrogen. RNA was extracted from the lysate using the TRizol reagent (Sigma Aldrich) according to the manufacturer's instructions.\n(§2) Real time PCR was used for the determination of mRNA levels as described previously. One μg of total RNA was used to synthesize the first strand cDNA by the High Capacity cDNA Reverse Transcription Kit (Applied Biosystems). qPCR was performed with an Applied Biosystems (ABI) Via 7 thermal cycler using ABI Taqman 2×PCR mix and ABI Assay on Demand qPCR primers. Changes in expression were calculated using the 2-ΔΔCt method using 18S RNA as the internal control."}, "gastrocnemius muscle": {"system": "gastrocnemius muscle", "assay": "Muscle histology (H&E) of gastrocnemius, fiber cross-sectional area", "assay_type": "in vivo, rat", "procedure": "Pieces of gastrocnemius muscle were frozen in isopentane pre-cooled on dry ice and stored at −80° C. Transverse sections (10 μm) were then cut on Leika CM3050S cryostat and mounted directly onto cooled glass slides followed by hematoxylin & eosin (H&E) staining. Stained sections were viewed in the EVOS FL Auto system (Life Technologies). Fiber size measurement and distribution was performed using the ImageJ software (NIH)."}, "FOXO1": {"system": "FOXO1", "assay": "FOXO1 protein level in muscle (western blot)", "assay_type": "in vivo, rat", "procedure": "(§3) Total RNAs from gastrocnemius, soleus and bone were extracted using the TRI reagent (Sigma-Aldrich). For western blot analysis, gastronemius and soleus muscle tissue were lysed in RIPA buffer. Protein concentrations were determined using the BCA method. 30 μg protein lysate was used for the SDS-PAGE protein separation, and blots were probed with FOXO1 antibody."}, "[3]": {"assay": "Bone architecture by high-resolution μCT", "assay_type": "in vivo, rat", "procedure": "(§4) Areal bone mineral density (BMD) measurements were performed by using a small animal dual-energy X-ray absorptiometer (DXA) (Lunar Piximus, Fitchburg, Wis., USA) as previously described. Volumetric BMD and bone architecture of the distal femur were assessed by a Scanco μCT scanner (μCT-40; Scanco Medical AG, Bassersdorf, Switzerland) at […] isotropic voxel size as previously described."}, "[4]": {"assay": "Skeletal muscle mass after acute SCI", "assay_type": "in vivo, rat", "procedure": "At the end of animal study, animals were euthanized by inhalation of isofluorane prior to harvesting of tissue for study. Gastrocnemius, soleus, plantaris, EDL, bicep and tricep muscle on both sides were dissected, weighed and stored at −80° C. for further analysis. The leg was removed using sterile technique; careful dissection was performed to free the head of the femur from the pelvis. To preserve bone for micro-CT study, the left leg was removed and placed into tubes containing 4% PFA overnight, after which the PFA will be replaced with 70% ethanol for storage. The right femur and tibia (n=4-5 per group) were placed in ice-cold Minimum Essential Alpha Medium (α-MEM), and then immediately processed for extraction of total RNA from bone."}, "nitrotyrosine": {"system": "nitrotyrosine", "assay": "Nitrotyrosine immunostaining of spinal cord (oxidative stress)", "assay_type": "in vivo, rat", "settings": "7 days post injury", "procedure": "(§5) Injectable methylprednisolone (MP) solution (62.5 mg/ml) was obtained from Pfizer. MP was conjugated to the chain terminus of methoxy HPMA, an amphiphilic macromolecular prodrug. In parallel, IRDye® 800CW-MP-HPMA (MP-Nano-IRDye) and Alexa Fluor 488-labeled HPMA-MP (MP-Nano-Alexa 488) were also synthesized for optical imaging to visualize the bio-distribution of MP-Nano. Immediately after spinal cord transection, animals were administered an intravenous injection of freshly prepared MP-Nano (60 mg/kg, equivalent to 20% free MP dose at 30 mg/kg), MP (30 mg/kg) or vehicle (propylene glycol) by tail vein, followed by implantation of an Alzet pump (Durect Co, Cupertino, Calif., USA) which provided a 24-h infusion of MP at 5.4 mg/kg/hr (SCI-MP), or vehicle (propylene glycol) (SCI-veh and SCI-Nano-MP) into a subcutaneous pocket. These dosing of MP corresponds on an mg per kg basis to that prescribed by the Bracken protocol. Sham-transected animals underwent laminectomy and implantation of the same Alzet pumps, with vehicle (propylene glycol) infusion instead, as baseline controls.\n(§6) At 2 and 7 days after injury, animals (sham, SCI-veh, SCI-MP, SCI-Nano-MP, n=5 animals for each condition and time point) were perfused transcardially with 4% paraformaldehyde. […] Fluorescence intensity quantifications were performed in the ImageJ software (NIH)."}, "[5]": {"assay": "Areal bone mineral density by DXA", "assay_type": "in vivo, rat", "procedure": "as §4"}, "[6]": {"assay": "Body weight and food intake after acute SCI", "assay_type": "in vivo, rat", "procedure": "All animals were maintained on a 12:12-h light/dark cycle with lights on at 07:00 h in a temperature-controlled (20±2° C.) vivarium. Spinal cord transection surgery was performed as previously described. In brief, 9-week-old Wistar rats (Charles River) were anesthetized by inhalation of isofluorane (3-5%) and hair was removed with a clipper. Skin over the back was cleaned with betadine and isopropyl alcohol. After making a midline incision the spinal cord at the site of transection (T4) was visualized by laminectomy, and the spinal cord was transected with microscissors. The space between transected ends of the spinal cord was filled with surgical sponge and the wound was closed in two layers with suture. Urine was manually expressed 3 times daily until automaticity develops, then as needed. Baytril was administered for the first 3 to 5 days postoperatively then as needed for sign of cloudy or bloody urine or wound infection. Sham-transected animals received a laminectomy-only surgery.\nInjectable methylprednisolone (MP) solution (62.5 mg/ml) was obtained from Pfizer. MP was conjugated to the chain terminus of methoxy HPMA, an amphiphilic macromolecular prodrug to produce a polymeric methylprednisolone conjugate. […]"}, "G6PC": {"system": "G6PC", "assay": "G6PC gene expression in gastrocnemius muscle (qPCR)", "assay_type": "in vivo, rat", "settings": "SCI animals", "procedure": "as §3, §2"}, "TNF-α [7]": {"system": "TNF-α", "assay": "TNF-α immunostaining of spinal cord (inflammation)", "assay_type": "in vivo, rat", "settings": "7 days post injury", "procedure": "as §5, §6"}, "TNF-α [8]": {"system": "TNF-α", "assay": "TNF-α mRNA in gastrocnemius and soleus muscle", "assay_type": "in vivo, rat", "settings": "2 days post injury", "procedure": "as §3, §2"}, "[9]": {"system": "MAFbx/atrogin-1 and MuRF1", "assay": "MAFbx and MuRF1 mRNA in muscle", "assay_type": "in vivo, rat", "settings": "2 days post injury", "procedure": "as §3, §2"}, "RANKL": {"system": "RANKL", "assay": "RANKL mRNA and OPG/RANKL ratio in bone", "assay_type": "in vivo, rat", "settings": "whole bone RNA", "procedure": "as §1, §2"}, "GLUT4": {"system": "GLUT4", "assay": "GLUT4 gene expression in gastrocnemius muscle (qPCR)", "assay_type": "in vivo, rat", "settings": "SCI animals", "procedure": "as §3, §2"}, "SOST": {"system": "SOST", "assay": "SOST mRNA in bone", "assay_type": "in vivo, rat", "settings": "p<0.05", "procedure": "as §1, §2"}, "[10]": {"settings": "intravenous; cited from earlier work"}}, "data": [{"smiles": "C[C@H]1C[C@@H]2[C@H]([C@@H](O)C[C@@]3(C)[C@H]2CC[C@]3(O)C(=O)CO)[C@@]2(C)C=CC(=O)C=C12", "note": "[MP, methylprednisolone]", "values": [{"measurement": "fasting glucose level vs. sham", "setting": "[1]", "value": "+10.4%"}, {"measurement": "osteoclastic markers TRAP, CTR and Integrin β3 mRNA vs. sham", "setting": "[2]", "value": "increase"}, {"measurement": "change of fiber cross-sectional area", "setting": "gastrocnemius muscle", "value": "−40", "unit": "%"}, {"measurement": "cross-sectional area and fiber size distribution", "setting": "gastrocnemius muscle; in words", "value": "significant left shift of fiber size"}, {"measurement": "FOXO1 protein level in gastrocnemius and soleus muscle vs. SCI-veh", "setting": "FOXO1", "value": "drastically elevated"}, {"measurement": "cortical architecture of the femur midshaft", "setting": "[3]; cortical bone volume, number, thickness, separation", "value": "No significant change"}, {"measurement": "trabecular bone architecture of the distal femur", "setting": "[3]; μCT structural parameters", "value": "more significant change in each of those structural parameters than SCI-veh group"}, {"measurement": "muscle mass gastrocnemius vs. sham", "setting": "[4]; NS", "value": "−12.5", "unit": "%"}, {"measurement": "muscle mass biceps vs. sham", "setting": "[4]; p<0.01", "value": "−14.6", "unit": "%"}, {"measurement": "muscle mass EDL vs. sham", "setting": "[4]; p<0.05", "value": "−10.4", "unit": "%"}, {"measurement": "change of SCI-induced accumulation of nitrotyrosine vs. SCI-veh", "setting": "nitrotyrosine", "value": "−40.0", "unit": "%"}, {"measurement": "decrease in BMD at the distal femur vs. sham", "setting": "[5]", "value": 11, "unit": "%"}, {"measurement": "decrease of BMD at the proximal tibia vs. sham", "setting": "[5]", "value": 11.2, "unit": "%"}, {"measurement": "body weight loss", "setting": "[6]; Day 1 and Day 2 post injury, vs control animals", "value": "significantly higher weight loss"}, {"measurement": "food intake", "setting": "[6]; vs all other experiment groups", "value": "Pronounced decrease of food intake"}, {"measurement": "G6PC expression vs. sham", "setting": "G6PC", "value": "~8", "unit": "fold"}, {"measurement": "change of SCI-induced TNF-α expression vs. SCI-veh", "setting": "TNF-α [7]", "value": "−32.5", "unit": "%"}, {"measurement": "mRNA level of TNF-α in gastrocnemius and soleus muscle", "setting": "TNF-α [8]", "value": "significantly increased"}, {"measurement": "MAFbx and MuRF1 mRNA level in gastrocnemius muscle", "setting": "[9]", "value": "more significant induction"}, {"measurement": "MAFbx mRNA level in soleus vs. SCI-veh group", "setting": "[9]", "value": "more significant increases"}, {"measurement": "decrease in the OPG/RANKL ratio vs. sham", "setting": "RANKL", "value": "about three-fold"}, {"measurement": "mRNA level of RANKL vs. sham", "setting": "RANKL", "value": "~7", "unit": "fold"}, {"measurement": "change of GLUT4 expression", "setting": "GLUT4", "value": "−56.5", "unit": "%"}, {"measurement": "levels of SOST mRNA vs. Sham", "setting": "SOST", "value": "−22", "unit": "%"}, {"measurement": "pharmacokinetic half-life", "setting": "[10]", "value": "2.5 to 3", "unit": "h"}]}]}
